From PubChem BioAssay (NCI) come the findings set out here.

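Compound exposure: 48 hours, 5 concentrations, 96-well plates. Abbreviation: GI50, concentration required for 50% inhibition of growth. Definition used: TGI = concentration required for complete inhibition of growth.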 A value given as a limit tells only on which side of the number the result lay.

Common to all, as to assay: inhibition of tumour cell growth, NCI panel, 48 h
The subject of assay [1] is UO-31 renal.
Assay [2] relates to NCI-H460 lung.
The subject of assay [3] is U251 CNS.
In assay [4] the test system is SK-OV-3 ovarian.
For assay [5], the system named is SNB-75 CNS.
Assay [6] relates to SK-MEL-5 melanoma.
Assay [7] has as its system HOP-62 NSCLC.
The test system of assay [8] is OVCAR-8 ovarian.
Assay [9] relates to DU-145 prostate.
The subject of assay [10] is SF-268 CNS.

As for `CCOC(=O)CC1COc2ccc3c(c21)OCO3` (centres undefined), the TGI in [1], in assay [2], in assay [3], in assay [4], in [5] and in assay [6] was more than 100 µM throughout. Besides, the TGI in assay [7] and in assay [8] was more than 100 µM each time.

With `COC(=O)N1CC(=O)C(C(=O)NC23CC4CC(CC(C4)C2)C3)C1` (centres undefined), the TGI in assay [9], in assay [1], in [2], in assay [10], in [3] and in assay [6] was more than 100 µM throughout. Also, the TGI in assay [8] is more than 100 µM.

For `CCOC(=O)C1SC(=Nc2ccc(OC)c(OC)c2)N=C1C` (centres undefined), the TGI is 86.7 µM in [1]; more than 100 µM in [2]; more than 100 µM in assay [10]; more than 100 µM in assay [3]; more than 100 µM in [4]; 71.1 µM in [5]. For the same molecule, the TGI in [6] is 37.2 µM; in assay [7], more than 100 µM; in assay [8], more than 100 µM.

Regarding `CC(CC(N)C(=O)O)C(=O)O` (centres undefined), the TGI in assay [9], in assay [1], in assay [2], in assay [10], in [3] and in [6] was more than 100 µM each time. In addition, the TGI in assay [7] and in assay [8] was more than 100 µM throughout.

Consider `CCc1c2c(cc3c1CC1(C3)Cc3cc4c(c(C(=O)OC)c3C1)CCCC4)CCCC2` (centres undefined), for which the TGI in [1], in assay [3], in assay [4], in assay [6], in [7] and in assay [8] was more than 100 µM in each case.

With `CC(C)C(=O)N1Cc2cc(Cl)cc(Cl)c2OC(=O)c2ccccc21`, the TGI was more than 100 µM in [1]; more than 100 µM in [2]; 41.5 µM in assay [10]; 84.5 µM in assay [4]; 96.5 µM in [5]; 38.3 µM in [6]. Also, the TGI in assay [7] and in assay [8] was more than 100 µM each time.

Turning to `O=C(/C=C\c1cccc2ccccc12)c1ccc(F)cc1`, the TGI in [1] is 32.4 µM; in assay [2], 33.2 µM; in [10] it was 30.8 µM; in assay [3] it was 29.9 µM; in assay [4] it was 58.3 µM; in assay [5], 75.3 µM. The values for the TGI in assay [6], in [7] and in assay [8] were 33 µM, more than 100 µM and 28.4 µM, respectively.

Take `CC1(c2sccc2Cl)CC(c2sccc2Cl)=C(C#N)C(=C(C#N)C#N)N1` (centres undefined): the TGI was found to be 31.2 µM in assay [9]; 43.6 µM in assay [2]; 38.5 µM in assay [10]; 33.8 µM in assay [3]; 31.5 µM in assay [4]; 33.3 µM in assay [6]. Moreover, the figures for the TGI in [7] and in assay [8] were 37.3 µM and 39 µM, respectively.

Turning to `CC(=O)OCC1OC(n2ccc(=O)[nH]c2=O)C(OC(C)=O)C(OC(C)=O)C1OC(C)=O` (centres undefined), the TGI in [1], in assay [2], in [10], in [3], in assay [4] and in assay [5] was more than 100 µM throughout. Also, the TGI in assay [6], in [7] and in [8] was more than 100 µM each time.

`COc1ccc(C2=NN(c3ccccc3)C[N+](c3ccc(C)cc3)=N2)cc1`: the TGI in assay [1] was more than 100 µM; in assay [2], more than 100 µM; in assay [10] it was more than 100 µM; in assay [3] it was 45.3 µM; in [6], more than 10 µM; in assay [7], more than 100 µM. Further, in assay [8], the TGI was more than 100 µM.

As for `O=C(Nc1ccc(Cl)cc1C(F)(F)F)C(=O)C1CCCS1(=O)=O` (centres undefined), the TGI in assay [2], in [10], in [3], in [5], in [6] and in assay [7] was more than 100 µM each time. This molecule displayed a TGI in assay [8] of more than 100 µM.

On to `O=C1c2ccccc2C(=O)N1CCSCC(CO)SCCN1C(=O)c2ccccc2C1=O` (centres undefined), for which the TGI in [9], in assay [1], in assay [2], in assay [10], in assay [3] and in assay [4] was more than 100 µM in each case. In addition, the TGI in assay [6], in assay [7] and in [8] was more than 100 µM throughout.

In the case of `CCC(C)C(N)C(=O)NC(CC(N)=O)C(=O)NC(CC(C)C)C(=O)NC(CCCCN)C(=O)NC(C)C(=O)NC(CC(C)C)C(=O)NC(C)C(=O)NC(C)C(=O)NC(CC(C)C)C(=O)NC(C)C(=O)NC(CCCCN)C(=O)NC(CCCCN)C(=O)NC(C(=O)NC(CC(C)C)C(N)=O)C(C)CC` (centres undefined), the TGI in assay [1] is 32.1 µM; in [2] it was 28.9 µM; in assay [10], 14.7 µM; in assay [3], 30.9 µM; in assay [4], 33.7 µM; in assay [5] it was 14 µM. Besides, the TGI in assay [6] turned out to be 14.3 µM; in [7] it was 8.55 µM; in assay [8], 34.3 µM.

For `O=C(O)/C(Cl)=C(\Cl)C(=O)c1ccccc1`, the TGI in [1], in [2], in assay [10], in assay [3], in assay [4] and in assay [5] was more than 100 µM each time. Besides, the TGI in assay [6], in assay [7] and in [8] was more than 100 µM throughout.

Consider `COc1ccccc1Cc1ccc(C2C=CC3(CC(=O)C=C3C)C(=O)C2)o1` (centres undefined), for which the TGI was more than 100 µM in assay [9]; more than 100 µM in assay [1]; more than 100 µM in assay [2]; 64.9 µM in [10]; 30.6 µM in assay [3]; 29 µM in [6]. The TGI in [7] is 50.3 µM; in assay [8], 37.1 µM.

Take `CC(=O)OC(CC1(C)C(C)CCC23COC(=O)C2=CCCC31)c1ccoc1` (centres undefined): the TGI in assay [1] was 60 µM; in assay [2], more than 100 µM; in [10] it was 36.2 µM; in assay [3], 29.3 µM; in assay [4] it was more than 100 µM; in assay [5], 78.5 µM. In addition, the TGI in [6] is 42.1 µM; in [7], 85.3 µM; in assay [8] it was 54.2 µM.

With `CCOC(=O)C(=O)C=P(c1ccccc1)(c1ccccc1)c1ccccc1`, the TGI in assay [1], in assay [2], in assay [10], in assay [3], in [4] and in [5] was more than 100 µM throughout. For the same molecule, the TGI in [6], in assay [7] and in [8] was more than 100 µM in each case.

On to `NS(=O)(=O)c1nnc(NC(=O)C23CC4CC(CC(C4)C2)C3)s1`, for which the TGI in [9], in [1], in [2], in assay [10], in assay [3] and in assay [4] was more than 100 µM in each case. For the same molecule, the TGI in assay [6], in assay [7] and in assay [8] was more than 100 µM throughout.

As for `CCOC(=O)Cn1c2ccccc2c(=O)c2cc(C)c(C)c(C#N)c21`, the TGI in [1] is more than 100 µM; in assay [2], more than 100 µM; in assay [10], more than 100 µM; in assay [3], more than 100 µM; in assay [4], more than 100 µM; in [5], 66.1 µM. For the same molecule, the TGI in [7] and in assay [8] was more than 100 µM in each case.

With `CC(CCC[C@H](C)CO)[C@H]1[C@@H](O)C(O)C2[C@@H]3C[C@@H](O)C4(O)C[C@@H](O)CC[C@]4(C)C3CC[C@@]21C` (some centres undefined), the TGI in assay [1], in [2], in assay [10], in assay [3], in [4] and in assay [5] was more than 100 µM each time. Moreover, the TGI in assay [6], in assay [7] and in [8] was more than 100 µM in each case.

`NCCSc1cc(O)c2c(c1N)C(=O)c1ccccc1C2=O`: the TGI in assay [1], in assay [2], in [10], in assay [3], in [4] and in assay [5] was more than 100 µM throughout. In addition, the TGI in assay [6] was 33.4 µM; in [7], more than 100 µM; in [8], more than 100 µM.

Take `Cc1cc(S(=O)(=O)N2CCNNC2=O)c(S)cc1Cl`: the TGI in [9], in assay [1], in assay [2], in assay [10], in assay [3] and in assay [5] was more than 100 µM each time. For the same molecule, the TGI in [6] and in assay [8] was more than 100 µM in each case.

`CC1CN=C(NS(=O)(=O)c2cc(C(=O)Nc3ccc(Cl)cc3)c(Cl)cc2S)NN1` (centres undefined): the TGI is more than 100 µM in [9]; more than 100 µM in [1]; more than 100 µM in assay [2]; 52.1 µM in assay [10]; more than 100 µM in assay [3]; more than 100 µM in [4]. In addition, the results for the TGI in assay [6], in [7] and in assay [8] were 28.8 µM, more than 100 µM and 59.3 µM, respectively.

Take `COc1c(C)cc2c(C(C)C)c(O)c(O)c(C=O)c2c1O`: the TGI in [1] is more than 100 µM; in assay [2], more than 100 µM; in assay [10], more than 100 µM; in assay [3] it was 57.9 µM; in [4], more than 100 µM; in [5], 90.2 µM. Besides, the TGI in assay [6] came out at 33.1 µM; in assay [8] it was 83.8 µM.

As to `COc1ccc2c3c(Nc4cccc(/C(C)=N\O)c4)[nH]c4ccccc4c-3c(N=O)c2c1`, the GI50 in assay [9] is 16 µM; in assay [1] it was 52.9 µM; in assay [2], 33.6 µM; in [10], more than 100 µM; in [3] it was 33.3 µM; in [6] it was 29.8 µM. The GI50 in assay [7] is 37.9 µM; in assay [8] it was 25.8 µM. For the same molecule, the TGI in [9] was 75.1 µM; in [1], more than 100 µM; in [2], more than 100 µM; in assay [10], more than 100 µM; in [3], more than 100 µM; in assay [6], more than 100 µM. Besides, the TGI in assay [7] and in assay [8] was more than 100 µM each time.

As for `CC(=O)Nc1ccc2nc(-c3ccccn3)c(-c3ccccn3)nc2c1`, the TGI in assay [9], in assay [1], in [2], in assay [10], in assay [3] and in assay [5] was more than 100 µM each time. The TGI in assay [6] and in [8] was more than 100 µM in each case.

On to `O=C(CN(C(=O)OC12CC3CC(CC(C3)C1)C2)C(=O)OC12CC3CC(CC(C3)C1)C2)Oc1ccc([N+](=O)[O-])cc1`, for which the TGI in [1], in assay [2], in assay [10], in assay [3], in assay [4] and in assay [5] was more than 100 µM each time. The TGI in assay [6], in assay [7] and in [8] was more than 100 µM each time.

Consider `N#CCc1c(-c2ccccc2)n(S(=O)(=O)c2ccccc2)c2ccccc12`, for which the TGI was more than 100 µM in [1]; more than 100 µM in assay [2]; more than 100 µM in assay [10]; more than 100 µM in assay [3]; 62 µM in assay [5]; more than 100 µM in assay [6]. Moreover, the TGI in assay [7] and in assay [8] was more than 100 µM each time.

For the molecule `COC(=O)c1cc(C(=O)OC)c(CC(=O)C(=O)NC2C3CC4CC(C3)CC2C4)nc1CC(=O)C(=O)NC1C2CC3CC(C2)CC1C3` (centres undefined), the TGI in assay [1], in [2], in assay [10], in assay [3], in [4] and in [5] was more than 100 µM each time. In addition, the TGI in assay [6], in assay [7] and in assay [8] was more than 100 µM throughout.
